Structures can show the parent of a compound that is named as a salt.

Results on twelve compounds are retold here after patent US20110144125A1, “Anti-Arrhythmia Agents, Methods of Their Use, Methods of Their Identification and Kits Therefore” (THE UAB RESEARCH FOUNDATION, priority 2008, published 2011).

The test system of assay [1] is rat left atrial appendage. As to the kind of experiment: 2-APB-induced spontaneous mechanical activity (SMA/SMEs) in isolated superfused rat left atria / left atrial appendage. As to conditions: for prevention of electromechanical instability in model of abnormal automaticity (FIG. 6): polyphenol then 2-APB; for effect on sporadic ectopic activity (SMA): 2-APB-treated appendages, known anti-arrhythmic agents, lidocaine data not shown; for concentration at which SMA is reduced (reversal): recorded ˜10 min after addition; for time to reversal of SMA after exposure: 20 μM 2-APB-induced SMA. The method, then:
Left atria were isolated from male Sprague-Dawley rats (325 to 400 g) under IP pentobarbital anesthesia (0.1 g/kg). Isolated left atria were superfused at 30° C. in Krebs-Henseleit (KH) buffer of the following mM composition: NaCl, 118; NaHCO3, 27; KCl, 4.8; MgSO4, 1.2; KH2PO4, 1.0; CaCl2, 1.8; and glucose, 11.1. Nearly isometric left atrial forces of contraction were measured as described.
Isolated superfused left atria were paced at 3 Hz. 2-APB was added to atrial superfusates from 0.015 or 0.15M DMSO stock solutions to achieve concentrations of 0, 2, 7.5, 15, or 22 μM (n=5 to 10 atria per concentration). Changes in atrial mechanical force were recorded during a subsequent 15 min superfusion.
Two groups of 5 to 6, 3 Hz paced atria were superfused in KH and exposed to 0 or 15 μM 2-APB for 10 min. The pacing stimulus was interrupted for 5 min and the number of spontaneous mechanical events (SMEs), defined as increases in mechanical force occurring in the absence of pacing, were measured as was the postrest potentiation response (PRP).
To determine whether diastolic interval affected the interaction between 2-APB and left atria, atrial pacing was decreased to 0.1 Hz, and 0, 7.5, or 22 μM 2-APB was added to the superfusate (n=6-8 per group). Superfusions continued for 15 min, and changes in atrial mechanical function were observed.
To establish whether SMA was reversible, atria (n=7) were paced at 0.1 Hz, exposed to 15 μM 2-APB for 10 min, and washed with KH. The effect of removing 2-APB on atrial mechanical function was recorded.
To test whether an anion transport inhibitor affected SMA, atria (n=7) were paced at 0.1 Hz in KH and exposed to 15 μM 2-APB. Following the appearance of SMA, they were titrated with 100 to 400 μM DIDS for 3 to 5 min at each concentration. Whether SMA occurred at the end of each titration period was recorded.
(§1) Left atria (n=10 per group) were paced at 0.1 Hz and treated with (i) 20 μM 2-APB for 10 min, (ii) with 30 nM isoproterenol for 5 min followed by 20 μM 2-APB for 10 min, and (iii) with 3 μM forskolin for 5 min followed by 20 μM 2-APB for 10 min.
The appendages then were titrated with increasing concentrations of 2-APB, and SMA was measured and recorded.
To determine the anti-arrhythmic activity of gossypol, isolated rat left atrial appendage and right ventricular muscle strips were used as model systems, as described above. Heart muscle was exposed to 20 μM 2-APB for 10 min to induce SMA, and rates of SMA were recorded as a percentage of initial SMA. The muscles then were titrated with up to 5 increasing concentrations of gossypol. Rates of SMA were recorded ˜10 min after the addition of concentration of the polyphenol.
To determine whether EGCG can prevent arrhythmia, rat left atrial appendages (n=9) were exposed to 20 μM 2-APB and rates of SMA were recorded. Groups of muscles (n=6 per) were pre-treated with 30 μM EGCG for 10 min following which they were exposed to 2-APB. Rates of SMA were recorded 10 min later.
To determine whether EGCG is effective to reverse arrhythmia, isolated rat left atrial appendage and right ventricular muscle strips were used as model systems, as described above. Rat left atrial appendages were exposed to 20 μM 2-APB for 10 min to induce SMA, and rates of SMA were recorded as a percentage of initial SMA. The left atrial appendages then were titrated with up to 5 increasing concentrations of the following polyphenols: EGCG, gossypol, resveratrol, and quercetin. Rates of SMA were recorded ˜10 min after the addition of concentration of the polyphenol.
To determine whether EGC can prevent arrhythmia, left atrial appendages (n=9) were exposed to 20 μM 2-APB and rates of SMA were recorded. Groups of appendages (n=6 per) were pre-treated with 30 μM EGC for 10 min following which they were exposed to 2-APB.

The test system of a further assay is rat left atria. The experiment in a line: Spontaneous tachycardic activity (STA) in isolated rat left atria exposed to 2-APB under increased calcium load. How it is done: Male Sprague-Dawley rats (325-400 g) were anesthetized with intra-peritoneal pentobarbital (0.1 g/kg). Their right and left atria were isolated, superfused at 30° C. in Krebs-Henseleit buffer, and nearly isometric forces of contraction were measured from these muscles (Wolkowicz et al., 2002). 2-APB was prepared as a 150 mM dimethyl sulfoxide stock.
Left atria (n=8 per group) were paced at 3 Hz and (i) titrated with 0 to 30 nM isoproterenol (Ahlquist, 1970) or (ii) exposed to 3 μM forskolin (Laurenza et al., 1980). Left atrial force and frequency of contraction, the time to peak tension and relaxation times were recorded after a 3-5 min exposure to forskolin or to any concentration of isoproterenol. The 3 Hz pacing stimulus was interrupted at the end of these protocols to measure SMEs.
as §1
Left atrial contraction and relaxation times were recorded at these five times, the pacing stimulus was stopped and rates of SMA were recorded. To determine whether initial pacing rate affects left atrial response to 2-APB and isoproterenol, left atria (n=5-7 per group) were paced at 3 Hz and (i) remained untreated for 15 min, (ii) were treated with 20 μM 2-APB alone for 10 min, or (ii) were treated with 30 nM isoproterenol for 5 min followed by 20 μM 2-APB for 10 min. Atrial mechanical function was measured at these four times; the pacing stimulus then was stopped and rates of SMA were recorded.
Left atria (n=6 per group) were paced at 3 Hz, titrated with 0 to 300 nM (−)BayK 8644 ([…]-1,4-Dihydro-2,6-dimethyl-5-nitro-4-[2-(trifluormethyl)phenyl]-3-pyridinecarboxylic acid methyl ester; Franckowiak et al. 1985) or FPL-64176 ((2,5-Dimethyl-4-[2-(phenylmethyl)benzoyl]-111-pyrrole-3-carboxylic acid methyl ester; Zheng et al., 1991) and their mechanical function and rates of SMA were recorded after a 5 min exposure to any concentration of slow calcium channel activator.
Left atria (n=8 per group) were paced at 0.1 Hz, exposed to 300 nM BayK 8644 or FPL-64176 for 5 min followed by 20 μM 2-APB for 10 min. Atrial mechanical function was recorded at this time; the pacing stimulus then was stopped and rates of SMA were recorded.
To test whether ryanodine receptor calcium leak produces SMA, left atria (n=6 per group) were paced at 0.1 Hz, treated with 0 or 300 nM BayK 8644 for 5 min, and then exposed to 600 nM ryanodine (Sutko et al., 1997). Atrial mechanical function and rates of SMA were recorded 20 min after exposure to ryanodine.
Rates of SMA were measured 5 min later.
Left atria (n=7) were paced at 3 Hz, treated with 120 μM ouabain (Illanes and Marshall, 1964), and any change in mechanical function was recorded at a new steady state, ˜10 min later. These atria were exposed to 20 μM 2-APB and their mechanical function and rates of SMA were recorded 10 min later.
3 Hz-paced left atria (n=9 per group) were superfused (i) in Krebs-Henseleit alone or (ii) they were treated with 20 μM 2-APB for 10 min, (iii) with 300 nM BayK 8644 for 10 min and with 20 μM 2-APB for 10 min, or (iv) they were treated with 300 nM BayK 8644 and 20 μM 2-APB for 10 min, then with 70 μM zatebradine (3-[3-[[2-(3,4-Dimethoxyphenyl)ethyl]methylamino] propyl]-1,3,4,5-tetrahydro-7,8,-dimethoxy-2H-3-benzazepin-2-one hydrochloride) for 10 min (Baruscotti et al., 2005). Pacing was interrupted at these times and rates of SMA were recorded.

[2] abbreviates: pre-treated with 30 μM for 10 min, then 20 μM 2-APB for 10 min.
Where [3] appears, read: 20 μM 2-APB for 10 min, then titration.

Turning to `O=c1c(O)c(-c2ccc(O)c(O)c2)oc2cc(O)cc(O)c12` [quercetin, 2-(3,4-dihydroxyphenyl)-3,5,7-trihydroxy-4H-chromen-4-one], the “prevention of electromechanical instability in model of abnormal automaticity (FIG. 6)” value (from here on “prevention … (FIG. 6)”) in assay [1] is reported as “prevent the electromechanical instability”. In addition, the “SMEs after pre-treatment (prevention of SMA)” value (“SMEs after pre-treatment” below) in assay [1] (setting [2]) was “no SMEs”.
Turning to `C=C[C@@]1(C)CC(=O)[C@]2(O)[C@@]3(C)[C@@H](O)CCC(C)(C)[C@@H]3[C@H](O)[C@H](OC(C)=O)[C@@]2(C)O1` [forskolin], the “rate of STA (SMA frequency) in presence of 2-APB and calcium loading agent” value in the assay on rat left atria (20 μM 2-APB plus 30 nM isoproterenol, 3 μM forskolin, 300 nM BayK 8644, 300 nM FPL-64176 or 120 μM ouabain, absence of pacing, 30° C.) came out at 231±5 contractions/min.
With `O=C(NCC1CCCCN1)c1cc(OCC(F)(F)F)ccc1OCC(F)(F)F` (stereo not shown) [flecainide], the “effect on sporadic ectopic activity (SMA)” value (from here on “effect … (SMA)”) is “suppress this arrhythmic activity” in assay [1] and “suppresses SMA” in assay [1] (listed as Flecainide).
Consider `O=C(O[C@H]1Cc2c(O)cc(O)cc2O[C@H]1c1cc(O)c(O)c(O)c1)c1cc(O)c(O)c(O)c1` [EGCG, (−)-cis-2-(3,4,5-Trihydroxyphenyl)-3,4-dihydro-1(2H)-benzopyran-3,5,7-triol 3-gallate], for which the “concentration at which SMA is reduced (reversal)” value in assay [1] (setting [3]) is not below 20 µM. For the same compound, the “reversal of SMA” value in assay [1] (20 μM 2-APB, unpaced, 40 μM EGCG added to the muscle bath) was “SMA ceased”. In assay [1], the “time to reversal of SMA after exposure” value was not above 10 min and the “prevention … (FIG. 6)” value is “prevent the electromechanical instability”. The “SMEs after pre-treatment” value in assay [1] (setting [2]) is “no SMEs”.
Take `COc1ccccc1OCC(O)CN1CCN(CC(=O)Nc2c(C)cccc2C)CC1` (stereo not shown) [ranolazine]: in assay [1], the “effect … (SMA)” value was “prevent the sporadic ectopic activity”. Further, in the assay with rat left atria (high calcium loads, 2-APB and 300 nM (−)BayK 8644, 80 μM ranolazine), the “effect on tachycardic activity (STA)” value was “suppresses, but does not completely prevent”.
Turning to 2-methoxy antimycin A [2MAA], in assay [1] (pre-treated with 80 μM 2MAA, 15 μM 2-APB), the “SMEs in 2MAA-treated appendages” value was “none”.
For `CCN(CC)CC(=O)Nc1c(C)cccc1C` [lidocaine], the “effect … (SMA)” value in assay [1] is on record as “suppress this arrhythmic activity”.
What is called IC50 is the midpoint of a concentration-inhibition curve. As to `COc1ccc(CCCOC(Cn2ccnc2)c2ccc(OC)cc2)cc1` (stereo not shown) [SKF-96365, 1-[2-(4-Methoxyphenyl)-2-[3-(4-methoxyphenyl)propoxy]ethyl-1H-imidazole hydrochloride], the “prevention and reversal of SMA” value in assay [1] (data not shown) is “prevents and reverse SMA”. In addition, the “reversal of STA” value in the assay on rat left atria (0.1 Hz-paced, BayK 8644 and 2-APB, ˜50 μM SKF-96365) is “STA was suppressed”. In addition, in the assay on rat left atria (Rattus norvegicus, BayK 8644 and 2-APB, read-out: IC50 for reversal of STA), the concentration for half-maximal inhibition (IC50) is approximately 15 µM. Further, the “prevention of STA” value with rat left atria (data not shown) is “prevents STA”.
With `Oc1cc(O)c2c(c1)O[C@@H](c1cc(O)c(O)c(O)c1)[C@@H](O)C2` [EGC, (−)-cis-2-(3,4,5-trihydroxyphenyl)-3,4-dihydro-1(2H)-benzopyran-3,5,7-triol], the “prevention … (FIG. 6)” value in assay [1] is recorded as “prevent the electromechanical instability”. For the same compound, in assay [1] (setting [2]), the “SMEs after pre-treatment” value is on record as “no SMEs”.
With `CCOC(=O)C1=C(N)Oc2ccc(Br)cc2C1C(C#N)C(=O)OCC` (stereo not shown) [HA14-1, ethyl 2-amino-6-bromo-4-(1-cyano-2-ethoxy-2-oxoethyl)-4H-chromene-3-carboxylate], the “effect on SMA when added after 2-APB (reversal)” value in assay [1] (HA14-1 added 10 min after exposure to 2-APB) is on record as “no effect on SMA”. Moreover, the “SMEs after pre-treatment” value in assay [1] (pre-treated with 30 μM HA14-1, 2-APB 15 μM and above, vs untreated appendages) is reported as “significantly fewer SMEs”.
With `Cc1cc2c(C(C)C)c(O)c(O)c(C=O)c2c(O)c1-c1c(C)cc2c(C(C)C)c(O)c(O)c(C=O)c2c1O` [gossypol, 7-(8-formyl-1,6,7-trihydroxy-3-methyl-5-propan-2-ylnaphthalen-2-yl)-2,3,8-trihydroxy-6-methyl-4-propan-2-ylnaphthalene-1-carbaldehyde], in assay [1] (setting [3]), the “concentration at which SMA dropped to zero (reversal)” value is not below 20 µM and the “concentration at which SMA is reduced (reversal)” value was not below 10 µM. In assay [1], the “time to reversal of SMA after exposure” value is listed as not above 10 min and the “prevention … (FIG. 6)” value is “prevent the electromechanical instability”.
As to `Oc1ccc(C=Cc2cc(O)cc(O)c2)cc1` [resveratrol, 5-[2-(4-hydroxyphenyl)ethenyl]benzene-1,3-diol], the “prevention … (FIG. 6)” value in assay [1] is “prevent the electromechanical instability”. In assay [1] (setting [2]), the “SMEs after pre-treatment” value is given as “no SMEs”.
